In PMC8119466, “A screen of FDA-approved drugs identifies inhibitors of protein tyrosine phosphatase 4A3 (PTP4A3 or PRL-3)” (Scientific Reports, 2021):
Where a name gives a salt, the structure may show the parent alone. Read-outs that look alike come from different tables or passages of the source.

Experiments:
Type in all cases: biochemical
recombinant PRL-3 = target: T1, recombinant PRL-3 (Homo sapiens, UniProt O75365); test: In vitro phosphatase assay (DiFMUP hydrolysis), PRL-3; further: test concentration or dose not given here
T1 construct: 6xHis (N, cleaved yes); made in house; host or cells: E. coli One Shot BL21 Star

recombinant PRL-1 = target: T2, recombinant PRL-1 (Homo sapiens, UniProt Q93096); test: In vitro phosphatase assay (DiFMUP hydrolysis), PRL-1; further: test concentration or dose not given here
T2 construct: 6xHis (N, cleaved yes); made in house; host or cells: E. coli One Shot BL21 Star
T2 sequence (Q93096 1-173): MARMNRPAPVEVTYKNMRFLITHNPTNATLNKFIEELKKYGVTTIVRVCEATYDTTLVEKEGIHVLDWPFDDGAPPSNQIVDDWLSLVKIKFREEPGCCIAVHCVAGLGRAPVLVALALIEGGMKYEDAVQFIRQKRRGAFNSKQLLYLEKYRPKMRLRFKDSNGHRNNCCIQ

recombinant PRL-2 = target: T3, recombinant PRL-2 (Homo sapiens, UniProt Q12974); test: In vitro phosphatase assay (DiFMUP hydrolysis), PRL-2;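 further: PRL-2 activity read as DiFMUP hydrolysis after 20 min at room temperature with drug, enzyme first pre-reduced at 4 °C for 20 min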
T3 construct: 6xHis (N, cleaved yes); made in house; host or cells: E. coli One Shot BL21 Star
T3 sequence (Q12974 1-167): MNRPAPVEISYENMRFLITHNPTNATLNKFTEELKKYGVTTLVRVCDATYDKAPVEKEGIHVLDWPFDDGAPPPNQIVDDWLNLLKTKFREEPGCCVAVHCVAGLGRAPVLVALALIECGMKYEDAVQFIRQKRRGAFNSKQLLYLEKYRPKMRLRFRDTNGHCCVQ

[1] = FDA-approved drug screen, compared to DMSO
[2] = FDA-approved drug screen, activity compared to DMSO

T1 sequence (O75365 whole entry): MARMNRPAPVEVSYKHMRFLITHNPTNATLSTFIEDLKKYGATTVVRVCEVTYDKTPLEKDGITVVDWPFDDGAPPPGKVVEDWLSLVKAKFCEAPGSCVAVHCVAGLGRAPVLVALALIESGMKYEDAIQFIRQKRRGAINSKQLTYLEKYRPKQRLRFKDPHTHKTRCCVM

Molecule	% Phosphatase Activity (compared to DMSO) PRL-3 (recombinant PRL-3; [1]) [%]	% Phosphatase Activity (compared to DMSO) PRL-2 (recombinant PRL-2; [1]) [%]	also measured
CN/C(=N/CCSCc1nc[nH]c1C)NC#N [Cimetidine]	–	–	% Phosphatase Activity (compared to DMSO) PRL-3 (recombinant PRL-3): 112%; % Phosphatase Activity (compared to DMSO) PRL-1 (recombinant PRL-1): 96%
CN1[C@@H]2C[C@@H](OC(=O)[C@H](CO)c3ccccc3)C[C@H]1[C@@H]1O[C@@H]12 [Scopolamine HBr]	77	–	% Phosphatase Activity (compared to DMSO) PRL-1 (recombinant PRL-1; [1]): 91%
COc1cc(Nc2c(C#N)cnc3cc(OCCCN4CCN(C)CC4)c(OC)cc23)c(Cl)cc1Cl [Bosutinib (SKI-606)]	82	–	% Phosphatase Activity (compared to DMSO) PRL-1 (recombinant PRL-1; [1]): 94%
CN1CCN(CCCN2c3ccccc3Sc3ccc(C(F)(F)F)cc32)CC1.Cl.Cl [Trifluoperazine 2HCl]	–	–	% Phosphatase Activity (compared to DMSO) PRL-3 (recombinant PRL-3; [2]): 100%; % Phosphatase Activity (compared to DMSO) PRL-1 (recombinant PRL-1; [2]): 103%
CCN(CC)CCCC(C)Nc1ccnc2cc(Cl)ccc12 (stereo not drawn) [Chloroquine Phosphate]	–	115	% Phosphatase Activity (compared to DMSO) PRL-1 (recombinant PRL-1; [1]): 104%
CCn1cc(C(=O)O)c(=O)c2cc(F)c(N3CCNCC3)nc21 [Enoxacin]	98	95	–
CCc1nc(N)nc(N)c1-c1ccc(Cl)cc1 [Pyrimethamine]	89	109	–
CCOc1ccc(NC(C)=O)cc1 [Phenacetin]	81	114	–
O=c1[nH]cc(F)c(=O)[nH]1 [Fluorouracil (5-Fluoracil, 5-FU)]	75	109	–
Gentamicin Sulfate	–	96	% Phosphatase Activity (compared to DMSO) PRL-1 (recombinant PRL-1; [1]): 95%
CC1(C)O[C@@H]2C[C@H]3[C@@H]4CCC5=CC(=O)CC[C@]5(C)[C@@]4(F)[C@@H](O)C[C@]3(C)[C@]2(C(=O)CCl)O1 [Halcinonide]	93	105	–
O=C(O)CCCN1CCC(O[C@@H](c2ccc(Cl)cc2)c2ccccn2)CC1.O=S(=O)(O)c1ccccc1 [Bepotastine Besilate]	98	113	–
COc1cc2c(cc1OC)[C@@]13CCN4CC5=CCO[C@H]6CC(=O)N2[C@H]1[C@H]6[C@H]5C[C@H]43 [Brucine]	83	86	–
OC[C@@H](O)[C@H](O)[C@@H](O)CO [Xylitol]	–	–	% Phosphatase Activity (compared to DMSO) PRL-2 (recombinant PRL-2; [2]): 99%; % Phosphatase Activity (compared to DMSO) PRL-3 (recombinant PRL-3; [2]): 96%
O=C1NC(=O)C(c2ccccc2)(c2ccccc2)N1 [Phenytoin]	84	–	% Phosphatase Activity (compared to DMSO) PRL-1 (recombinant PRL-1; [1]): 104%
CCN(CC)CC(=O)Nc1c(C)cccc1C [Lidocaine]	63	91	–
Cc1cc(C2CCCCC2)n(O)c(=O)c1 [Ciclopirox]	76	111	–
COC1=C(OC)C(=O)C(CCCCCCCCCCO)=C(C)C1=O [Idebenone]	101	150	–
Nc1nc2[nH]cc(CCc3ccc(C(=O)N[C@@H](CCC(=O)[O-])C(=O)[O-])cc3)c2c(=O)[nH]1.Nc1nc2[nH]cc(CCc3ccc(C(=O)N[C@@H](CCC(=O)[O-])C(=O)[O-])cc3)c2c(=O)[nH]1.O.O.O.O.O.[Na+].[Na+].[Na+].[Na+] [Pemetrexed Disodium Hydrate]	108	101	–
Br.COc1ccc2c3c1O[C@H]1C[C@@H](O)C=C[C@@]31CCN(C)C2 [Galanthamine HBr]	93	85	–
Colistin Sulfate	120	–	% Phosphatase Activity (compared to DMSO) PRL-1 (recombinant PRL-1; [1]): 91%
N[C@@H](CSCCCO)C(=O)O [Fudosteine]	92	75	–
CCC(C)n1ncn(-c2ccc(N3CCN(c4ccc(OCC5COC(Cn6cncn6)(c6ccc(Cl)cc6Cl)O5)cc4)CC3)cc2)c1=O (stereo not drawn) [Itraconazole]	74	93	–

Molecule	% Phosphatase Activity (compared to DMSO) PRL-3 (recombinant PRL-3; [1]) [%]	% Phosphatase Activity (compared to DMSO) PRL-2 (recombinant PRL-2; [1]) [%]	also measured
CCC1(C)CC(=O)NC(=O)C1 [Bemegride]	81	97	–
COc1ccc([C@]2(C#N)CC[C@@H](C(=O)O)CC2)cc1OC1CCCC1 [Cilomilast]	88	99	–
CC1(C)S[C@@H]2[C@H](NC(=O)Cc3ccccc3)C(=O)N2[C@H]1C(=O)O [Penicillin G Sodium]	75	105	–
C[C@@H](c1ncncc1F)[C@](O)(Cn1cncn1)c1ccc(F)cc1F [Voriconazole]	–	–	% Phosphatase Activity (compared to DMSO) PRL-2 (recombinant PRL-2; [2]): 92%; % Phosphatase Activity (compared to DMSO) PRL-3 (recombinant PRL-3; [2]): 86%
C[C@@H](NCCCc1cccc(C(F)(F)F)c1)c1cccc2ccccc12 [Cinacalcet HCl]	81	114	–
COc1cc(Cc2cnc(N)nc2N)cc(OC)c1OC [Trimethoprim]	–	–	% Phosphatase Activity (compared to DMSO) PRL-2 (recombinant PRL-2): 107%; % Phosphatase Activity (compared to DMSO) PRL-3 (recombinant PRL-3): 79%
Nc1c2c(nc3ccccc13)CCCC2 [Tacrine HCl]	–	–	% Phosphatase Activity (compared to DMSO) PRL-2 (recombinant PRL-2): 89%; % Phosphatase Activity (compared to DMSO) PRL-3 (recombinant PRL-3): 89%
Cc1ccnc(NS(=O)(=O)c2ccc(N)cc2)n1 [Sulfamerazine]	–	–	% Phosphatase Activity (compared to DMSO) PRL-2 (recombinant PRL-2; [2]): 108%; % Phosphatase Activity (compared to DMSO) PRL-3 (recombinant PRL-3; [2]): 83%
Maraviroc	93	–	% Phosphatase Activity (compared to DMSO) PRL-1 (recombinant PRL-1; [1]): 82%
Cl.N=C(N=C(N)N)N1CCOCC1 [Moroxydine HCl]	79	102	–
Polymyxin B sulphate	98	–	% Phosphatase Activity (compared to DMSO) PRL-1 (recombinant PRL-1; [1]): 98%
CCN[C@H]1C[C@H](C)S(=O)(=O)c2sc(S(N)(=O)=O)cc21 [Dorzolamide HCl]	87	81	–
Clc1ccccc1C(c1ccccc1)(c1ccccc1)n1ccnc1 [Clotrimazole]	88	108	–
N[C@@H]1CON=C1O [D-Cycloserine]	95	101	–
CC(=O)O[C@H]1C[C@@H]2CC[C@@H]3[C@H](CC[C@@]4(C)[C@H]3C[C@H]([N+]3(C)CCCCC3)[C@@H]4OC(C)=O)[C@@]2(C)C[C@@H]1[N+]1(C)CCCCC1.[Br-].[Br-] [Pancuronium dibromide]	85	109	–
CC/C(=C(\c1ccccc1)c1ccc(OCCN(C)C)cc1)c1ccccc1 [Tamoxifen]	–	–	% Phosphatase Activity (compared to DMSO) PRL-2 (recombinant PRL-2; [2]): 110%; % Phosphatase Activity (compared to DMSO) PRL-3 (recombinant PRL-3; [2]): 81%
Nc1ccc(S(=O)(=O)Nc2ncccn2)cc1 [Sulfadiazine]	–	–	% Phosphatase Activity (compared to DMSO) PRL-3 (recombinant PRL-3): 103%; % Phosphatase Activity (compared to DMSO) PRL-1 (recombinant PRL-1): 105%
C[N+]1(C)CCC(=C(c2ccccc2)c2ccccc2)CC1 [Diphemanil Methylsulfate]	91	124	–
O=S(=O)([O-])CCCS(=O)(=O)[O-].[Na+].[Na+] [Eprodisate (disodium)]	112	126	–
C=CCN1CC[C@]23c4c5ccc(O)c4O[C@H]2C(=O)CC[C@@]3(O)[C@H]1C5 [Naloxone HCl]	–	123	% Phosphatase Activity (compared to DMSO) PRL-1 (recombinant PRL-1; [1]): 105%
CCN(CC)CCOC(=O)C(c1ccccc1)c1ccccc1 [Adiphenine HCl]	82	101	–
CN1CCC(COc2cnc(-c3cccc(Cn4nc(-c5cccc(C#N)c5)ccc4=O)c3)nc2)CC1 [Tepotinib (EMD 1214063)]	–	–	% Phosphatase Activity (compared to DMSO) PRL-2 (recombinant PRL-2; [2]): 110%; % Phosphatase Activity (compared to DMSO) PRL-3 (recombinant PRL-3; [2]): 113%
